# Laboratory results: patent publication US20110189174A1, “COMPOSITIONS AND METHODS FOR TREATING, REDUCING, AMELIORATING, ALLEVIATING, OR INHIBITING PROGRESSION OF, PATHOGENIC OCULAR NEOVASCULARIZATION” (priority 2010, published 2011)
# Key:
# [1] = Intraocular pressure (Tono-pen) in monkeys after intravitreal injection; type: in vivo, cynomolgus monkeys (Macaca fascicularis)
# Method: (§1) Once the phase Ib study was completed, and it was established that the drug suspension in oil would not interfere with either laser administration, evaluation of CNV or cause adverse effects, phase II was initiated. On days 1, and 15 both eyes of monkeys received 50 μL of Lucentis (0.5 mg/eye), vehicle (0 mg/eye), BOL-303050-X (1.5 mg/eye), BOL-303054-X (1.5 mg/eye) or BOL-303055-X (1.5 mg/eye) (Table 2). Intravitreous injection was performed for each by eye aiming towards mid-vitreous body. Dosing in the right eye was alternated for successive doses (as applicable) at approximately the 11 o'clock and 10 o'clock positions. Dosing in the left eye was alternated for successive doses (as applicable) from approximately the 1 o'clock and 2 o'clock positions.
# IOP was done in conjunction with the OE using a Tono-pen on anesthetized monkeys on days 1, 3, 7, 15, and 31 of dosing Phase II and on the day of scheduled sacrifice (day 38).
# Grade IV lesions were analyzed using either Fisher's exact probability test (2-Tail) or Chi square test (χ2). For the analysis of delta changes in TOP a two-way ANOVA with repeated measures followed by the contrast procedure was performed on Box-Cox transformed data if needed. Unless indicated otherwise, data are presented as means±SEM unless stated otherwise. P<0.05 was considered statistically significant.
# [2] = Clinical ophthalmic examination in monkeys (vitreal cell scores, anterior chamber inflammation); type: in vivo, cynomolgus monkeys (Macaca fascicularis); settings: intravitreal days 1 and 15, cells not distinguishable from dispersed drug
# Method: as §1
# Animals were examined at baseline, on days 1, 3, 7, 15, and 31 of Dosing Phase II and on the day of scheduled sacrifice (day 38). On days of dose administration the ophthalmic examination was done prior to dosing.
# [3] = system: human retinal endothelial cells (HREC); experiment: Testing 4: VEGF-induced HREC proliferation (MTS assay), Avastin with or without BOL-303050-X; type: cell-based
# Method: HREC were first cultured overnight in a 96-well plate coated with fibronectin. The next day, cells were serum-starved for 2 hours before treatment. […] The cells were then cultured at 37° C., 5% CO2, and 95% humidity for another 3 days.
# A 96-well plate was coated with human fibronectin (10 μg/ml) at 37° C. for 5 h. HREC were collected from flasks by EDTA-trypsin treatment and re-suspended in 10% FBS CS-C medium at 18,000 cells/ml. Cells (200 μl/well) were added to the plate and cultured overnight at 37° C., 5% CO2, and 95% humidity. The next day, medium was aspirated and 200 μl/well serum-free medium was added for 2 h at 37° C., 5% CO2, and 95% humidity.
# (§2) Normal IgG was added in such a way that all groups contained the same amount of IgG proteins. All medium solutions were incubated for 1 h at 37° C., 5% CO2, and 95% humidity. After carefully aspirating the medium from cells, 200 μl of the medium containing different agents were added into appropriate wells. The cells were further cultured for 3 days.
# At the end of incubation, the medium was carefully aspirated from cells and 120 μl of MTS working solution was added into all wells including four blank wells (without cells). The plate was incubated at 37° C., 5% CO2, and 95% humidity for 1 hour and then read by a plate reader at 490 nm wavelength.
# (§3) Median optical density (OD) was generated from different groups. Data were expressed as mean±SEM of the OD values. Statistical analysis was performed using two-way ANOVA followed by the contrast procedure after Box-Cox transformations if needed, and p<0.05 was considered statistically significant. […] All the data from the individual wells were fitted to a re-parameterized four-parameter logistic equation to obtain IC50 using similar methodology as that previously described and utilizing the statistical analysis software JMP (SAS Institute, Cary, N.C.).
# [4] = system: human retinal endothelial cells (HREC); experiment: Testing 6: VEGF-induced HREC proliferation (MTS assay), BOL-303055-X and Avastin alone and in combination; type: cell-based
# Method: HREC were first cultured overnight in a 96-well plate coated with fibronectin. The next day, cells were serum-starved for 2 hours. The medium containing different agents as shown in Table 12 was pre-incubated for 1 hour before being added into appropriate wells. The cells were further cultured at 37° C., 5% CO2, and 95% humidity for another 3 days. After that, cell proliferation was estimated by the MTS assay—a cell metabolic activity assay (disclosed hereinabove).
# A 96-well plate was coated with human fibronectin (10 μg/ml) for 5 h at 37° C., 5% CO2, and 95% humidity. HREC were collected from flasks by EDTA-trypsin treatment and re-suspended in 10% FBS CS-C medium at 18,000 cells/ml. Cells (200 μl/well) were added to the plate and cultured for overnight at 37° C., 5% CO2, and 95% humidity. Next day, medium was aspirated and serum-free medium was added to wells at 200 μl/well for 2 hours.
# as §2, with “was also” for “was”, “IgG protein.” for “IgG proteins.”, “agents was” for “agents were”
# At the end of incubation, the medium was carefully aspirated from cells and 120 μl of MTS working solution was added into all wells. The plate was incubated at 37° C., 5% CO2, and 95% humidity for 1 hour and then read by a plate reader at 490 nm wavelength.
# as §3, with “a three-way” for “two-way”, “on log-transformed data,” for “after Box-Cox transformations if needed,”, “P<0.05” for “p<0.05”
smiles,measurement,setting,value
CCc1nc(NC[C@H](NC(=O)OCc2ccccc2)C(=O)O)c(C)c(N2CCC(c3ccc4c(n3)NCCC4)CC2)n1 [BOL-303055-X],IOP change compared with baseline,"[1]; right eyes day 15, left eyes days 3 and 15",reduced IOP
same,Increase in IOP compared to baseline,"[1]; right eyes, day 31, 1.5 mg/eye intravitreal days 1 and 15",4 mm Hg
same,Vitreal cell score: number of eyes with grade 0,[2]; Day 3,11
same,Vitreal cell score: number of eyes with grade 1,[2]; Day 3,1
same,Vitreal cell score: number of eyes with grade 2,[2]; Day 3,0
same,Vitreal cell score: number of eyes with grade 3,[2]; Day 3,0
same,Vitreal cell score: number of eyes with grade 4,[2]; Day 3,0
same,Vitreal cell score: number of eyes with grade Trace,[2]; Day 3,6
same,Vitreal cell score: number of eyes with grade 0,[2]; Day 7,0
same,Vitreal cell score: number of eyes with grade 1,[2]; Day 7,3
same,Vitreal cell score: number of eyes with grade 2,[2]; Day 7,6
same,Vitreal cell score: number of eyes with grade 3,[2]; Day 7,3
same,Vitreal cell score: number of eyes with grade 4,[2]; Day 7,1
same,Vitreal cell score: number of eyes with grade Trace,[2]; Day 7,5
same,Vitreal cell score: number of eyes with grade 0,[2]; Day 15,0
same,Vitreal cell score: number of eyes with grade 1,[2]; Day 15,7
same,Vitreal cell score: number of eyes with grade 2,[2]; Day 15,3
same,Vitreal cell score: number of eyes with grade 3,[2]; Day 15,1
same,Vitreal cell score: number of eyes with grade 4,[2]; Day 15,3
same,Vitreal cell score: number of eyes with grade Trace,[2]; Day 15,4
same,Vitreal cell score: number of eyes with grade 0,[2]; Day 31,5
same,Vitreal cell score: number of eyes with grade 1,[2]; Day 31,2
same,Vitreal cell score: number of eyes with grade 2,[2]; Day 31,4
same,Vitreal cell score: number of eyes with grade 3,[2]; Day 31,0
same,Vitreal cell score: number of eyes with grade 4,[2]; Day 31,0
same,Vitreal cell score: number of eyes with grade Trace,[2]; Day 31,7
same,Vitreal cell score: number of eyes with grade 0,[2]; Day 38,6
same,Vitreal cell score: number of eyes with grade 1,[2]; Day 38,5
same,Vitreal cell score: number of eyes with grade 2,[2]; Day 38,0
same,Vitreal cell score: number of eyes with grade 3,[2]; Day 38,0
same,Vitreal cell score: number of eyes with grade 4,[2]; Day 38,0
same,Vitreal cell score: number of eyes with grade Trace,[2]; Day 38,7
same,Enhancement of Avastin potency,[3]; compound at 1 nM,approximately 6 fold
same,Enhancement of Avastin potency,[3]; compound at 10 nM,~7 fold
same,HREC proliferation under basal conditions,"[4]; 1 nM, no VEGF",significantly inhibited
same,Enhancement of Avastin potency,[4]; BOL-303055-X 1 nM,approximately 3.8 fold
same,"Inhibition of VEGF-induced HREC proliferation, agent alone","[4]; BOL-303055-X 1 nM, Avastin 3-300 ng/ml (significant from 30 ng/ml), VEGF 10 ng/ml",reduced VEGF-induced proliferation in a statistically significant manner
same,Combination effect with Avastin on VEGF-induced HREC proliferation (synergistic/additive),"[4]; BOL-303055-X 1 nM, Avastin 10 to 100 ng/ml",synergistic effects
